According to patent US20100260683A1, “THERMOLABILE LIPOSOME WITH CONTROLLED RELEASE TEMPERATURE” (MAX-PLANCK-GESELLSCHAFT ZUR FORDERUNG DER WISSENCHAFTEN E.V., priority 2001, published 2010):

Test: Main transition temperature (TM) of phosphatidylcholines
Assay type: physicochemical
Details: acyl chains at positions 1 and 2 of glycero-3-phosphocholine or 1 and 3 of glycero-2-phosphocholine
Procedure: The abovementioned preferred composition of the liposome according to the invention can be made to measure for other temperature ranges by choice of components having the main transition temperature suitable in each case. In table 1, the main transition temperatures (TM) of phosphatidylcholines are indicated whose main transition temperature lies in the range from 0 to 80° C. The main transition temperatures are recognizable as from the table, depending on the chain length and the distribution over the positions 1 and 2 of glycero-3-phosphocholine or 1 and 3 of glycero-2-phosphocholine.

In order of falling “TM (main transition temperature)” value:
1. CCCCCCCCCCCCCCCCCCCCCCCC(=O)OC[C@H](COP(=O)([O-])OCC[N+](C)(C)C)OC(=O)CCCCCCCCCCCCCCCCCCCCCCC [1,2-dilignoceroyl-]  80 °C
2. CCCCCCCCCCCCCCCCCCCCCC(=O)OC[C@H](COP(=O)([O-])OCC[N+](C)(C)C)OC(=O)CCCCCCCCCCCCCCCCCCCCC [1,2-dibehenoyl-]  75 °C
3. CCCCCCCCCCCCCCCCCCCC(=O)OC[C@H](COP(=O)([O-])OCC[N+](C)(C)C)OC(=O)CCCCCCCCCCCCCCCCCCC [1,2-diarachinoyl-]  66 °C
4. CCCCCCCCCCCCCCCCCC(=O)OCC(COP(=O)([O-])OCC[N+](C)(C)C)OC(=O)CCCCCCCCCCCCCCCCC (stereo not drawn) [1,2-distearoyl-, 1,2-distearoylglycero-3-phospho-choline]  56 °C
5. CCCCCCCCCCCCCCCCCC(=O)OCC(COC(=O)CCCCCCCCCCCCCCCCC)OP(=O)([O-])OCC[N+](C)(C)C [1,3-distearoyl-]  53 °C
6. CCCCCCCCCCCCCCCCCC(=O)O[C@H](COC(=O)CCCCCCCCCCCCCCC)COP(=O)([O-])OCC[N+](C)(C)C [1-palmitoyl-2-stearoyl-]  52 °C
7. CCCCCCCCCCCCCCCCCC(=O)OC[C@H](COP(=O)([O-])OCC[N+](C)(C)C)OC(=O)CCCCCCCCCCCCCCC [1-stearoyl-2-palmitoyl-]  48 °C
8. CCCCCCCCCCCCCCCCCC(=O)OCC(COC(=O)CCCCCCCCCCCCC)OP(=O)([O-])OCC[N+](C)(C)C (stereo not drawn) [1-stearoyl-3-myristoyl-]  46 °C
9. CCCCCCCCCCCCCCCCCC(=O)O[C@H](COC(=O)CCCCCCCCCCCCC)COP(=O)([O-])OCC[N+](C)(C)C [1-myristoyl-2-stearoyl-]  42 °C
10. CCCCCCCCCCCCCCCC(=O)OCC(COP(=O)([O-])OCC[N+](C)(C)C)OC(=O)CCCCCCCCCCCCCCC (stereo not drawn) [1,2-dipalmitoyl-, 1,2-di-palmitoylglycero-3-phosphocholine]  41 °C
11. CCCCCCCCCCCCCCCC(=O)OCC(COC(=O)CCCCCCCCCCCCCCC)OP(=O)([O-])OCC[N+](C)(C)C [1,3-dipalmitoyl-]  39 °C
12. CCCCCCCCCCCCCCCC(=O)OC(COC(=O)CCCCCCCCCCCCC)COP(=O)([O-])OCC[N+](C)(C)C (stereo not drawn) [1-myristoyl-2-palmitoyl]  37 °C
13. CCCCCCCCCCCCCCCCCC(=O)OC[C@H](COP(=O)([O-])OCC[N+](C)(C)C)OC(=O)CCCCCCCCCCCCC [1-stearoyl-2-myristoyl-]  33 °C
14. CCCCCCCCCCCCCCCC(=O)OC[C@H](COP(=O)([O-])OCC[N+](C)(C)C)OC(=O)CCCCCCCCCCCCC [1-palmitoyl-2-myristoyl-]  27 °C
15. CCCCCCCCCCCCCC(=O)OC[C@H](COP(=O)([O-])OCC[N+](C)(C)C)OC(=O)CCCCCCCCCCCCC [1,2-dimyristoyl-]  23 °C
16. CCCCCCCCCCCCCC(=O)OCC(COC(=O)CCCCCCCCCCCCC)OP(=O)([O-])OCC[N+](C)(C)C [1,3-dimyristoyl-]  19 °C
17. CCCCCCCCCCCCCCCCCC(=O)OC[C@H](COP(=O)([O-])OCC[N+](C)(C)C)OC(=O)CCCCCCCCCCC [1-stearoyl-2-lauroyl-]  17 °C
18. CCCCCCCC/C=C\CCCCCCCC(=O)O[C@H](COC(=O)CCCCCCCCCCCCCCCCCCCCC)COP(=O)([O-])OCC[N+](C)(C)C [1-behenoyl-2-oleoyl-]  14 °C
19. CCCCCCCCCCCCCCCC(=O)OC[C@H](COP(=O)([O-])OCC[N+](C)(C)C)OC(=O)CCCCCCCCCCC [1-palmitoyl-2-lauroyl-]  11 °C
20. CCCCCCCC/C=C\CCCCCCCC(=O)O[C@H](COC(=O)CCCCCCCCCCCCCCCCC)COP(=O)([O-])OCC[N+](C)(C)C [1-stearoyl-2-oleoyl-]  7 °C
21. CCCCCCCC/C=C\CCCCCCCC(=O)O[C@H](COC(=O)CCCCCCCCCCCCCCC)COP(=O)([O-])OCC[N+](C)(C)C [1-palmitoyl-2-oleoyl-]  5 °C
